Experiment: gradient 5% acetonitrile 3 min, to 50% in 2 min, to 85% in 15 min, held 3 min, 100 µL/min
Settings: column: Zorbax Extend-C18 2.1 x 50 mm; eluents: water / acetonitrile, 0.1% formic acid
How it was run: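 Each retention time is based on an adduct peak selected computationally and verified by manual inspection. Measurements used HPLC–quadrupole time-of-flight mass spectrometry in positive and negative ionization mode on mixtures of ~100 pure standards. Chromatography ran on a Zorbax Extend-C18 column (2.1 × 50 mm, 1.8 μm) at 100 μL/min with water and acetonitrile, each containing 0.1% formic acid, and dead and dwell volumes of 40 μL and 900 μL.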

Row | RP-LC retention time [s] | Structure (SMILES)
1 | 1190 | CCCN1C(=O)COc2ccc(-c3noc(-c4cccc(OC)c4)n3)cc21
2 | 735 | CCC(=O)Nc1cccn2nc(C3CCC3)nc12
3 | 695 | CCOC(=O)N1CCN(C(=O)c2cccc([N+](=O)[O-])c2C)CC1
4 | 774 | CN(C(=O)Cn1ccn2nc(-c3ccccc3)c(CO)c2c1=O)c1ccccc1
5 | 987 | CC(C)Sc1cc2c(cc1NC(=O)Cc1cccc(F)c1)n(C)c(=O)n2C
6 | 1210 | Cc1ccc(C(=O)Nc2nc(-c3ccc(Br)cc3)cs2)cc1[N+](=O)[O-]
7 | 1080 | O=c1ccc(-c2ccccc2)nn1Cc1nc(-c2ccc(Cl)cc2)no1
8 | 617 | c1ccc(CSc2ccc(-c3ccc4c(c3)OCO4)nn2)nc1
9 | 975 | CC1Cc2cc(-c3cc(CC(=O)N4CCN(c5ccccc5F)CC4)no3)ccc2O1 (configuration not stated)
10 | 972 | O=C(NC1CCCC1)N1c2ccccc2CC1c1nc(C2CC2)no1 (configuration not stated)
11 | 865 | CC(C)Oc1ccc(CNC(=O)CN2CCN(Cc3ccc(F)cc3)C2=O)cc1
12 | 1010 | O=C(Nc1ccc(F)cc1)C1CCN(S(=O)(=O)c2cc(-c3noc(C4CC4)n3)cs2)CC1
13 | 649 | C=CCn1c(C(=O)N2CCN(c3ccccn3)CC2)cc2cc(S(=O)(=O)N(C)C)ccc21
14 | 643 | COC(=O)C1=CN(C2CC2)c2cc(N3CCN(C4CCCCC4)CC3)c(F)cc2S1(=O)=O
15 | 962 | CCOc1ccc(C(=O)N2CCc3nc(-c4ccc(OC)cc4)ncc3C2)cc1
16 | 691 | Cc1cccc(CS(=O)(=O)N(CCc2cccs2)Cc2cccnc2)c1
17 | 834 | CC(C)c1ccc(NC(=O)CSc2ccc(NC(=O)C3CC3)nn2)cc1
18 | 592 | O=C(CN1CCCC(COCc2ccccc2)C1)NCc1ccc2c(c1)OCO2 (configuration not stated)
19 | 998 | Cc1nc(-c2ccccc2)cc2nn(CC(=O)Nc3cc(F)cc(F)c3)c(=O)n12

Row | RP-LC retention time [s] | Structure (SMILES)
20 | 647 | COc1ccc(-c2nnc3n2CCN(Cc2ccc(C)o2)C3)cc1
21 | 782 | Cc1ccc(NC(=O)N2CCCC2c2cc(C)no2)cc1 (configuration not stated)
22 | 1020 | Cc1cccc(-c2noc(CN3N=NC4C(=O)N(c5ccc(F)cc5)C(=O)C43)n2)c1 (configuration not stated)
23 | 817 | COC(=O)c1cccc(C(=O)Nc2cccc(OC)c2)n1
24 | 853 | Cc1ccc(Nc2nc(C(=O)NC3CCCC3)nc3ccccc23)cc1
25 | 754 | CSc1ccccc1C(=O)N1CCN(C(=O)C2CC2c2ccc3c(c2)OCO3)CC1 (configuration not stated)
26 | 556 | CC(C)n1c(CN2CCOCC2)nc2ccccc21
27 | 812 | CCOC(=O)c1cccc(NC(=O)C2CCN(C(=O)C3Sc4ccccc4NC3=O)CC2)c1 (configuration not stated)
28 | 942 | Cc1cc(C)c(NC(=O)COc2cc(C)nc(N3CCN(c4ccccc4)CC3)n2)c(C)c1
29 | 726 | O=C(Cc1cccc(F)c1)Nc1nnc(C2CC(=O)N(c3ccc(F)cc3)C2)o1 (configuration not stated)
30 | 874 | Cc1ccc(N2C(=O)CN(S(C)(=O)=O)CC2(C)C(=O)NCc2ccc(Cl)cc2)cc1C (configuration not stated)
31 | 699 | COc1ccc(Cl)cc1NC(=O)N1CC2CC1C(=O)O2 (configuration not stated)
32 | 877 | COc1ccccc1CNS(=O)(=O)c1cc2c(s1)CCN(C(=O)C1CCC1)C2
33 | 860 | COc1ccc(/C=C/c2nn3c(-c4cccnc4)nnc3s2)cc1
34 | 1020 | COc1ccccc1N1CCN(c2cc(SCC(=O)Nc3cccc(SC)c3)ncn2)CC1
35 | 592 | CCOCCCNC(=O)c1csc(-c2ccnc(N3CCCC3)c2)n1
36 | 751 | Cc1cc(N)c2cc(NC(=O)/C=C\c3ccccc3Cl)ccc2n1
37 | 730 | O=C(Cn1nc(-n2cccn2)ccc1=O)Nc1cc(C(F)(F)F)ccc1Cl
